Data reported in US20240308984A1, “Jak Inhibitor With High Oral Bioavailability” (TECHNODERMA MEDICINES INC, priority 2021, published 2024).
Like-named read-outs stand apart in the source and are kept apart here.

Assay: Oral PK in rats, single oral dose, plasma concentration by LC-MS/MS
Format: in vivo, Sprague Dawley (SD) rats
Settings: SD rats, single oral gavage 5 mg/kg, n=3; for Cmax: 1 mg/mL solution in DMA:30% Solutol HS 15:Saline 10:10:80, plasma; for AUC0-t: sampling up to 24 hours, plasma
Protocol: Biological Description of Oral PK in Rats:
In brief, the compounds were prepared in a solvent [DMA: 30% Solutol HS 15: Saline=10:10:80 (v/v/v)] to form clear solution formulations having a concentration of 1 mg/mL. Each test compound was administered to 3 rats (n=3) in single oral gavage (5 mg/kg). Approximately 150 μL of whole blood was taken from a subclavian vein of each experimental rat before administration and at 0.25, 0.5, 1, 2, 4, 8, 12, and 24 hours after administration, respectively, and was collected into an Eppendorf tube containing EDTA-K2, then 100 μL of the whole blood was added to an Eppendorf tube containing 300 μL of cyanomethane (ACN), mixed and then centrifuged to separate the plasma, and after it was ensured that there was no hemolysis in the samples, the plasma samples were stored in a freezer at −90° C. to −60° C. for analyses of drug concentrations in the samples via LC-MS/MS.
Concentrations of compounds in the plasma samples were tested and analyzed via LC-MS/MS system (API4000: LC-MS-MS-001), 10 μL of the sample was mixed with 100 μL of ACN containing a standard, then 110 μL of water was added and the mixture was oscillated, and finally, 2 μL of the mixed solution was injected into the LC-MS/MS system.

[1] = Sprague-Dawley, rat, read-out: Cmax
[2] = Sprague-Dawley, rat, read-out: AUC0-t

Row | Compound | Cmax [1] [ng/mL] | AUC0-t [2] [ng·h/mL] | Cmax [ng/mL] | AUC0-t [ng·h/mL]
1 | Cn1cc(Nc2nccc(-c3ccc(NC(=O)[C@@H]4CC4(F)F)nc3)n2)cn1 [Comparative Example 1, (S)-2,2-difluoro-N-(5-(2-((1-methyl-1H-pyrazol-4-yl)amino)pyrimidin-4-yl)pyridin-2-yl)cycloprop-ane-1-carboxamide] | 116 | 891 | – | –
2 | Cn1cc(Nc2nccc(-c3ccc(NS(=O)(=O)Cc4cccc(C#N)c4)cc3)n2)cn1 [Comparative Example 2] | – | – | 20.2 | 47.4
3 | Cn1cc(Nc2nccc(-c3ccc(NS(=O)(=O)Cc4cccc(F)c4)cc3)n2)cn1 [Comparative Example 3] | – | – | – | 381
4 | CCNC(=O)c1ccc(Nc2nccc(-c3ccc(NC(=O)[C@@H]4CC4(F)F)cc3)n2)cc1C [Comparative Example 4] | – | – | 5.02 | 30.7
5 | CCNC(=O)c1ccc(Nc2nccc(-c3ccc(NC(=O)[C@@H]4CC4(F)F)cc3)n2)cc1 [Comparative Example 5] | – | – | 16.5 | 141
6 | Cn1cc(Nc2nccc(-c3ccc(N(COC(=O)C(C)(C)C)C(=O)[C@@H]4CC4(F)F)nc3)n2)cn1 [Example 1, (S)-(2,2-difluoro-N-(5-(2-(((1-methyl-1H-pyrazol-4-yl)amino)pyrimidin-4-yl)pyridin-2-yl)cyclopropane-1-carboxamido)methyl pivalate] | – | – | – | 1670
7 | Cn1cc(Nc2nccc(-c3ccc(N(COC(=O)C(C)(C)C)S(=O)(=O)Cc4cccc(C#N)c4)cc3)n2)cn1 [Example 2, (41-(3-cyanophenyl)-N-(4-(2-(((1-methyl-1H-pyrazol-4-yl)amino)pyrimidin-4-yl)phenyl)methyl)sulfonamido)methyl pivalate] | 791 | 1580 | – | –
8 | Cn1cc(Nc2nccc(-c3ccc(N(COC(=O)C(C)(C)C)S(=O)(=O)Cc4cccc(F)c4)cc3)n2)cn1 [Example 3] | 1860 | 2890 | – | –
9 | CCNC(=O)c1ccc(Nc2nccc(-c3ccc(N(COC(=O)C(C)(C)C)C(=O)C4CC4(F)F)cc3)n2)cc1C (stereo not drawn) [Example 4] | 635 | 3090 | – | –
10 | CCNC(=O)c1ccc(Nc2nccc(-c3ccc(N(COC(=O)C(C)(C)C)C(=O)C4CC4(F)F)cc3)n2)cc1 (stereo not drawn) [Example 5] | 689 | 2710 | – | –
